Data published in patent US9447135B2, “Semi-synthetic mithramycin derivatives with anti-cancer activity” (UNIVERSITY OF KENTUCKY RESEARCH FOUNDATION, priority 2012, dated 2016).
Like-named read-outs stand apart in the source and are kept apart here.

Columns and labels:
[1] = test system: TC32 Ewing sarcoma cell line; assay: 72 hour cytotoxicity, TC32; format: cell-based; conditions: Ewing sarcoma cell line TC32, 72 hour
Method: (§1) The cytotoxicity of a subgroup of the MTM SA analogues was tested against various Ewing sarcoma cell lines and non-Ewing sarcoma cell lines over a 72 hour period. Each analogue was checked individually with a range of concentrations to determine the IC50 of the molecule in actively growing cell cultures.

[2] = test system: 5838 Ewing sarcoma cell line; assay: 72 hour cytotoxicity, 5838; format: cell-based; conditions: Ewing sarcoma cell line 5838, 72 hour
Method: as §1

[3] = test system: SK-ES-1 Ewing sarcoma cell line; assay: 72 hour cytotoxicity, SK-ES-1; format: cell-based; conditions: Ewing sarcoma cell line SK-ES-1, 72 hour
Method: as §1

[4] = test system: A673 Ewing sarcoma cell line; assay: 72 hour cytotoxicity, A673; format: cell-based; conditions: Ewing sarcoma cell line A673, 72 hour
Method: as §1

[5] = test system: TC71 Ewing sarcoma cell line; assay: 72 hour cytotoxicity, TC71; format: cell-based; conditions: Ewing sarcoma cell line TC71, 72 hour
Method: as §1

[6] = test system: RDES Ewing sarcoma cell line; assay: 72 hour cytotoxicity, RDES; format: cell-based
Method: as §1

[7] = 72 hour cytotoxicity, RH30; format: cell-based; conditions: Ewing sarcoma cell line RH30, 72 hour; read-out: IC50 (nM) RH 30
Method: as §1

[8] = test system: ES-2 Ewing sarcoma cell line; assay: 72 hour cytotoxicity, ES-2; format: cell-based; conditions: Ewing sarcoma cell line ES-2, 72 hour
Method: as §1

[9] = test system: ES-3 Ewing sarcoma cell line; assay: 72 hour cytotoxicity, ES-3; format: cell-based; conditions: Ewing sarcoma cell line ES-3, 72 hour
Method: as §1

[10] = test system: ES-4 Ewing sarcoma cell line; assay: 72 hour cytotoxicity, ES-4; format: cell-based; conditions: Ewing sarcoma cell line ES-4, 72 hour
Method: as §1

[11] = test system: ES-7 Ewing sarcoma cell line; assay: 72 hour cytotoxicity, ES-7; format: cell-based; conditions: Ewing sarcoma cell line ES-7, 72 hour
Method: as §1

[12] = test system: ES-8 Ewing sarcoma cell line; assay: 72 hour cytotoxicity, ES-8; format: cell-based; conditions: Ewing sarcoma cell line ES-8, 72 hour
Method: as §1

[13] = test system: A549, human non-small cell lung cancer cells; assay: 72 hour cytotoxicity, A549 (resazurin); format: cell-based; conditions: non-Ewing sarcoma cell line A549, 72 hour
Method: The cytotoxic effects of the side chain modifications of SA were investigated in order to determine whether the modification were beneficial to the drug structure. All cytotoxicity assays were performed with A549, human non-small cell lung cancer cells. A549 cells were cultured as specified from ATCC at 37° C., 5% CO2. The cells were added to a 96 well plate (5,000 cells/well) and permitted to attach for 24 h. After 24 h culture media were replaced with the side chain modified MTM SA derivative containing media at differing concentrations. The cells were incubated with the drug containing media for 72 hrs total (n=8). Cell viability was determined using a resazurin assay that signifies mitochondrial metabolic activity in living cells. […] of a 1 mM resazurin solution in PBS was added to the control and analogue-treated cells at the end of the treatment period. Cell viability was determined three hours later by reading the fluorescence at 560 nm (Ex)/590 nm (Em). The fluorescence signals were quantified using a Spectramax M5 plate reader (Molecular Devices) equipped with a SoftMaxPro software. Cytotoxicity was determined by calculating the half maximal inhibitory concentration (IC50) of each sample.
as §1

[14] = test system: U118 non-Ewing sarcoma cell line; assay: 72 hour cytotoxicity, U118; format: cell-based; conditions: non-Ewing sarcoma cell line U118, 72 hour
Method: as §1

[15] = test system: PC3 non-Ewing sarcoma cell line; assay: 72 hour cytotoxicity, PC3; format: cell-based; conditions: non-Ewing sarcoma cell line PC3, 72 hour
Method: as §1

[16] = test system: DU145 non-Ewing sarcoma cell line; assay: 72 hour cytotoxicity, DU145; format: cell-based; conditions: non-Ewing sarcoma cell line DU145, 72 hour
Method: as §1

[17] = test system: C42 non-Ewing sarcoma cell line; assay: 72 hour cytotoxicity, C42; format: cell-based; conditions: non-Ewing sarcoma cell line C42, 72 hour
Method: as §1

[18] = test system: VCaP non-Ewing sarcoma cell line; assay: 72 hour cytotoxicity, VCaP; format: cell-based
Method: as §1

[19] = test system: HCT-116 non-Ewing sarcoma cell line; assay: 72 hour cytotoxicity, HCT-116; format: cell-based; conditions: non-Ewing sarcoma cell line HCT-116, 72 hour
Method: as §1

[20] = test system: OVCAR-8 non-Ewing sarcoma cell line; assay: 72 hour cytotoxicity, OVCAR-8; format: cell-based; conditions: non-Ewing sarcoma cell line OVCAR-8, 72 hour
Method: as §1

[21] = molecular target: T1, EWS-FLI1 promoter occupancy upstream from Nr0b1, Tgfbr2, and Rcor1 genes in TC32 cells (Homo sapiens, UniProt Q01543+Q01844); assay: EWS-FLI1 promoter occupancy by ChIP-RTPCR; format: cell-based
T1 construct: containing the 5′ region of EWS (Ewing sarcoma breakpoint region 1) and the 3′ ETS region of Fli-1; N-terminal part of EWS (EWSR1, Q01844), natural fusion partner from the translocation; endogenous in cells; host or cells: TC32 Ewing sarcoma cells
T1 sequence (Q01844+Q01543 fused): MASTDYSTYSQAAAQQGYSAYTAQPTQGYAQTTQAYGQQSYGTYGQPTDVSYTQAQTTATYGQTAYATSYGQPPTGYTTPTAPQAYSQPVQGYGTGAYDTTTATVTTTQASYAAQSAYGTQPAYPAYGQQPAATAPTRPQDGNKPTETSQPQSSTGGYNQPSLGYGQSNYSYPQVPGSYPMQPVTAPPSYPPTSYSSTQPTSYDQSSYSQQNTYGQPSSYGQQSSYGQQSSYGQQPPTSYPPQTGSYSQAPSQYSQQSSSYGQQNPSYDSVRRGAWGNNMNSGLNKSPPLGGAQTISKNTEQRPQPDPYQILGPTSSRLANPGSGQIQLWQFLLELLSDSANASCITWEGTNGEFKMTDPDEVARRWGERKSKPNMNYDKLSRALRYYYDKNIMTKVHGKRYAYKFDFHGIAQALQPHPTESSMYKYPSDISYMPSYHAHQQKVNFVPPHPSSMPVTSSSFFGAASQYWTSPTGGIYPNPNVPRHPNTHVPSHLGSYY
Method: (§2) Studies were conducted using MTM and lead analogs (mithramycin-SK (MTM-SK), mithramycin-SA-tryptophan (MTM-SA-Trp), and mithramycin-SA-phenylalanine (MTM-SA-Phe)). EWS-FLI1 promoter occupancy was investigated using chromatin immune precipitation real time PCR (ChIP-RTPCR). The effect of drug treatment on expression of genes controlled by EWSFLI1 was evaluated by quantitative real-time PCR (qRT-PCR) (FIG. 11). The effect of treatment with 100 nM of drug for 24 hours on cell cycle distribution was also compared among analogs (FIG. 12(b)). […] In addition, the maximum tolerated dose (MTD) and the effect of treatment on plasma total-calcium were used to assess relative toxicity in mice.
(§3) EWS-FLI1 promoter occupancy upstream from Nr0b1, Tgfbr2, and Rcor1 genes was evaluated in Ewing sarcoma cells (TC32 cells) by ChIP-RTPCR. […] (FIG. 11). […] (FIG. 12(a)). Furthermore, the effect of drug treatment appears to lead to differences in cell-cycle progression. […] (FIG. 12(b)).

[22] = test system: genes controlled by EWS-FLI1 in TC32 cells; assay: Expression of genes controlled by EWS-FLI1 by qRT-PCR; format: cell-based; conditions: 6 hours, dose dependent
Method: FIG. 11A, FIG. 11B, FIGS. 11C, 11D, and 11E provide a series of graphs showing that MTM analogs have increased cytoxicity and distinct cell cycle distribution in Ewing sarcoma. The graphs show relative gene expression in TC32 cells treated with MTM analogs. Three genes controlled by the EWS-FLI1 transcription factor were investigated by qRT-PCR at four different treatment concentrations for 6 hours. CCK served as a negative control.
as §2, §3

[23] = test system: TC32 cells; assay: Cell cycle distribution, FACS analysis; format: cell-based; conditions: 100 nM of drug for 24 hours
Method: FIG. 12(b) is a FACs analysis of TC32 cells treated with 100 nM of drug for 24 hours.
as §2, §3

[24] = test system: Ewing cell lines; assay: In vitro efficacy, GI50 (72-hr) in Ewing cell lines; format: cell-based; conditions: Ewing cell lines (n=8)
[25] = test system: Ewing sarcoma (TC32, 5838, SKES1) and non-Ewing (A459 (lung) and PC3 (prostate)) cancer cell lines; assay: Selectivity assay, Ewing sarcoma versus non-Ewing cell panel (72 hr cytotoxicity)
[26] = test system: several cancer cell lines; conditions: cited from earlier work

Compound: COC(=O)C(Cc1cccc2[nH]ccc12)NC(=O)[C@@H](OC)[C@@H]1Cc2cc3cc(OC4CC(OC5CC(O)C(O)C(C)O5)C(O)C(C)O4)c(C)c(O)c3c(O)c2C(=O)[C@H]1OC1CC(OC2CC(OC3CC(C)(O)C(O)C(C)O3)C(O)C(C)O2)C(O)C(C)O1 (some centres unmarked) [MTMSA-Trp]
- IC50 ([1]; Homo sapiens, TC-32): 18 nM
- IC50 [2]: 10 nM
- IC50 ([3]; Homo sapiens, SK-ES1): 38 nM
- IC50 ([4]; Homo sapiens): 44 nM
- IC50 ([5]; TC-71): 34 nM
- IC50 ([6]; RD-ES): 39 nM
- IC50 [7]: 48 nM
- IC50 [8]: 63 nM
- IC50 [9]: 64 nM
- IC50 [10]: 33 nM
- IC50 [11]: 41 nM
- IC50 [12]: 40 nM
- IC50 ([13]; Homo sapiens): 87 nM
- IC50 [14]: 56 nM
- IC50 [15]: 45 nM
- IC50 ([16]; Homo sapiens, DU-145): 31 nM
- IC50 [17]: 96 nM
- IC50 ([18]; Homo sapiens): 20 nM
- IC50 ([19]; Homo sapiens): 23 nM
- IC50 ([20]; Homo sapiens): 72 nM
- effect on FLI1 binding to promoters (ChIP-RTPCR) [21]: the most destabilizing
- rank-order of efficiency of mRNA down-regulation (qRT-PCR) [22]: MTM-SA-Trp>MTM=MTM-SK
- cell cycle distribution [23]: increased S-phase accumulation
- potency (GI50) among Ewing cell lines compared to other analogs [24]: relatively higher potency (lower GI50)
- selectivity against Ewing sarcoma cells relative to non-Ewing cells ([25]; FIG. 9, right panel): 9 fold
- more potent than MTM ([25]; against Ewing sarcoma cells, relative to MTM): about 3 fold
- higher selectivity than MTM against Ewing sarcoma relative to non-Ewing cell lines ([25]; relative to MTM, 72 hr): 3 fold

Compound: CO[C@@H]([C@@H]1Cc2cc3cc(O[C@H]4C[C@@H](O[C@H]5C[C@@H](O)[C@H](O)[C@@H](C)O5)[C@H](O)[C@@H](C)O4)c(C)c(O)c3c(O)c2C(=O)[C@H]1O[C@H]1C[C@@H](O[C@H]2C[C@@H](O[C@H]3C[C@](C)(O)[C@H](O)[C@@H](C)O3)[C@@H](O)[C@@H](C)O2)[C@H](O)[C@@H](C)O1)[C@@H](O)C(C)=O [MTMSK, reference compound]
- IC50 ([1]; read-out: IC50 (nM) TC 32): 23 nM
- IC50 [2]: 23 nM
- IC50 [3]: 25 nM
- IC50 [4]: 37 nM
- IC50 [5]: 31 nM
- IC50 [6]: 40 nM
- IC50 [7]: 62 nM
- IC50 [8]: 39 nM
- IC50 [9]: 56 nM
- IC50 [10]: 32 nM
- IC50 [11]: 42 nM
- IC50 [12]: 44 nM
- IC50 [13]: 30 nM
- IC50 [15]: 37 nM
- IC50 ([16]; read-out: IC50 (nM) DU 145): 32 nM
- IC50 [17]: 89 nM
- IC50 [18]: 36 nM
- IC50 [19]: 31 nM
- IC50 [20]: 29 nM
- effect on FLI1 binding to promoters (ChIP-RTPCR) [21]: mostly stabilize FLI1
- rank-order of efficiency of mRNA down-regulation (qRT-PCR) [22]: MTM-SA-Trp>MTM=MTM-SK
- cell cycle distribution [23]: primarily in G1/G2 phase
- activity compared to the parent MTM [26]: increased activity
